Reference: patent US8871753B2, “Macrocyclic compounds and their use as kinase inhibitors” (Incyte Corporation, priority 2008, dated 2014)
Counter-ions that a name gives are not always drawn.

Columns and labels:
Assay type in all cases: biochemical
[1] = target: T1, human JAK2 (a.a. 828-1132) (Homo sapiens, UniProt O60674); assay: In vitro JAK kinase assay (HTRF, phosphorylation of a biotinylated peptide), JAK2; settings: Table D1
T1 construct: JAK2 (a.a. 828-1132); His tag (N); made in house; host or cells: insect cells (baculovirus)
Summary of the method: (§1)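 Phosphorylation of a biotinylated peptide by the JAK kinase domain, detected by HTRF with Eu-Py20 and SA-APC. ATP was 90 μM for JAK1, 30 μM for JAK2 and 3 μM for JAK3. Reactions ran 1 h at room temperature and were stopped with EDTA, followed by 40 min antibody binding.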

[2] = target: TYK2 (Homo sapiens, UniProt P29597); assay: TYK2 kinase inhibition (Table A1); settings: Table D1
[3] = target: T2, human JAK1 (a.a. 837-1142) (Homo sapiens, UniProt P23458); assay: In vitro JAK kinase assay (HTRF, phosphorylation of a biotinylated peptide), JAK1; settings: Table D1; read-out: JAK1 IC50
T2 construct: human JAK1 (a.a. 837-1142); His tag (N); made in house; host or cells: insect cells (baculovirus)
Summary of the method: as §1

[4] = target: T3, human JAK3 (a.a. 781-1124) (Homo sapiens, UniProt P52333); assay: In vitro JAK kinase assay (HTRF, phosphorylation of a biotinylated peptide), JAK3; settings: Table D1
T3 construct: JAK3 (a.a. 781-1124); His tag (N); made in house; host or cells: insect cells (baculovirus)
Summary of the method: as §1

Chain of TYK2 (P29597 whole entry): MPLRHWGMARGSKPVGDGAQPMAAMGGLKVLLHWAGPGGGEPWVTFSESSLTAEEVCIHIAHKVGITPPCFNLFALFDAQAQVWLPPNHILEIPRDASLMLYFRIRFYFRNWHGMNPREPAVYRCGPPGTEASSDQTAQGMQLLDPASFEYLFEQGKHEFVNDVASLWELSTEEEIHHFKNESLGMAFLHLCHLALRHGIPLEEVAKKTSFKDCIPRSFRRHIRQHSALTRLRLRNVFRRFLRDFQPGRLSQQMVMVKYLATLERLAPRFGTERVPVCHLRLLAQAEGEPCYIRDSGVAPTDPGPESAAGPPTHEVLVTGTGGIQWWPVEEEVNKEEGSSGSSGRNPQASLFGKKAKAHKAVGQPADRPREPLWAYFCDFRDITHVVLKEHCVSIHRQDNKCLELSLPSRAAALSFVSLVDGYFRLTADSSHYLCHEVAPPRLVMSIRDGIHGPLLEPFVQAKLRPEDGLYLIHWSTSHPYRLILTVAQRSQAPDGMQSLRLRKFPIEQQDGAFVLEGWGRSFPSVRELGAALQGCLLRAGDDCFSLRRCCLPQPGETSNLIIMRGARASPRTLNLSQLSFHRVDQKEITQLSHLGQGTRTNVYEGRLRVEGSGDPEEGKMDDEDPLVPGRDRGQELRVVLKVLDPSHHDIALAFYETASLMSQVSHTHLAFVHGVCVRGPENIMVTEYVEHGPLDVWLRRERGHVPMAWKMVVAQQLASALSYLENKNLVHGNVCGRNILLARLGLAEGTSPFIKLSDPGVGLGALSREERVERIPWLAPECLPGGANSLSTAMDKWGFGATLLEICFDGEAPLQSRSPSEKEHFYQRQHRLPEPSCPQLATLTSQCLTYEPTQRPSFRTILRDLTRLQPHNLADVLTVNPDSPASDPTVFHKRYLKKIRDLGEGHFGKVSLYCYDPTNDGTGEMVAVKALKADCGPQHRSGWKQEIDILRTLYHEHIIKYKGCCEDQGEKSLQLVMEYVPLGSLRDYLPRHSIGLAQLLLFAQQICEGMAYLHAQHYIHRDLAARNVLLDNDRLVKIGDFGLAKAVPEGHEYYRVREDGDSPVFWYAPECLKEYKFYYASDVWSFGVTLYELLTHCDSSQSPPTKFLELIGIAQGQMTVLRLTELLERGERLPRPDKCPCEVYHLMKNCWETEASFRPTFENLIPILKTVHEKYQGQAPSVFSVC
T1 sequence (O60674 828-1132): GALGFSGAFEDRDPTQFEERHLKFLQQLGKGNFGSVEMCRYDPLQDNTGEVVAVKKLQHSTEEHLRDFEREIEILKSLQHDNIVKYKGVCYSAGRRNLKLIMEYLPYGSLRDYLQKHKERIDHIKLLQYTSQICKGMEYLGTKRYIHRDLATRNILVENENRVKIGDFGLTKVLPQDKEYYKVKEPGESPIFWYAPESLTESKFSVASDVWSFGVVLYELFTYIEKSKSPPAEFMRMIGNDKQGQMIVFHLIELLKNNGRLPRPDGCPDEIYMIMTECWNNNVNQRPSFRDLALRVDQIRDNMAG
T2 sequence (P23458 849-1154): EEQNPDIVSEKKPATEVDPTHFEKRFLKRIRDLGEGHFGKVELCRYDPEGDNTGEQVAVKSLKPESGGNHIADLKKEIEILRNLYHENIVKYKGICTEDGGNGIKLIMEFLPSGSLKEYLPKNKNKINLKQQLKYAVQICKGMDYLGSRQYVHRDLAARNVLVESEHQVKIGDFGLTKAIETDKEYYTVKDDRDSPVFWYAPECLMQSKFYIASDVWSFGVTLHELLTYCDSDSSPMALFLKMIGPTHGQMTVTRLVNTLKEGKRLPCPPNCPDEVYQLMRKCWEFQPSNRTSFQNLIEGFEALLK
T3 sequence (P52333 781-1124): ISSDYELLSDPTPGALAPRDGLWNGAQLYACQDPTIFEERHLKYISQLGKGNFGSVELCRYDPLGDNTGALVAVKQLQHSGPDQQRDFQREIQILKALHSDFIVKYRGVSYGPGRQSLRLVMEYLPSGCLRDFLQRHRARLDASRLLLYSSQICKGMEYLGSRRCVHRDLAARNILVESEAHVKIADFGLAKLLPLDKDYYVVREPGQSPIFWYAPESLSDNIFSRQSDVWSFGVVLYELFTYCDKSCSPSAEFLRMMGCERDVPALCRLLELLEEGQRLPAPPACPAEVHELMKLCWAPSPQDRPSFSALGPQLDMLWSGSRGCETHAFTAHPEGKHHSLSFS

Row | IC50 [1] [µM] | IC50 [2] [µM] | IC50 [3] [µM] | IC50 [4] [µM] | Compound
1 | 0.0028 | 0.0018 | 0.0009 | 0.021 | O=c1[nH]c2cc3cc(c2o1)CCc1cccc(c1)Nc1ncc(Cl)c(n1)N3 [Example D184, 4-Chloro-18-oxa-2,6,8,20,25-pentaazapentacyclo[14.6.1.1(3,7).1(9,13).0(17,21)]pentacosa-1(23),3(25),4,6,9(24),10,12,16,21-nonaen-19-one]
2 | 0.049 | 0.742 | 0.108 | 0.196 | O=C(Cn1c(=O)oc2c3cc(cc21)Nc1nc(ncc1Cl)Nc1cccc(c1)CC3)Nc1ccccc1 [Example D185, 2-[4-Chloro-19-oxo-18-oxa-2,6,8,20,25-pentaazapentacyclo[14.6.1.1(3,7).1(9,13).0(17,21)]pentacosa-1(23),3(25),4,6,9(24),10,12,16,21-nonaen-20-yl]-N-phenylacetamide trifluoroacetate]
3 | 0.04 | 0.792 | 0.053 | 0.162 | O=C(Cn1c(=O)oc2c3cc(cc21)Nc1nc(ncc1Cl)Nc1cccc(c1)CC3)NCc1ccccc1 [Example D186, N-Benzyl-2-[4-chloro-19-oxo-18-oxa-2,6,8,20,25-pentaazapentacyclo[14.6.1.1(3,7).1(9,13).0(17,21)]pentacosa-1(23),3(25),4,6,9(24),10,12,16,21-nonaen-20-yl]acetamide trifluoroacetate]
4 | 0.185 | > 1 | 0.2 | 0.13 | O=C(Cn1c(=O)oc2c3cc(cc21)Nc1nc(ncc1Cl)Nc1cccc(c1)CC3)N1CCOCC1 [Example D187, 4-Chloro-20-(2-morpholin-4-yl-2-oxoethyl)-18-oxa-2,6,8,20,25-pentaazapentacyclo[14.6.1.1(3,7).1(9,13).0(17,21)]pentacosa-1(23),3(25),4,6,9(24),10,12,16,21-nonaen-19-one trifluoroacetate]
5 | 0.032 | > 1 | 0.032 | 0.079 | O=C(Cn1c(=O)oc2c3cc(cc21)Nc1nc(ncc1Cl)Nc1cccc(c1)CC3)N1CCN(c2ccccc2)CC1 [Example D188, 4-Chloro-20-[2-oxo-2-(4-phenylpiperazin-1-yl)ethyl]-18-oxa-2,6,8,20,25-pentaazapentacyclo[14.6.1.1(3,7).1(9,13).0(17,21)]pentacosa-1(23),3(25),4,6,9(24),10,12,16,21-nonaen-19-one bis(trifluoroacetate)]
6 | 0.0005 | 0.0052 | 0.0076 | 0.0073 | Clc1cnc2nc1Nc1cccc(c1)OCCc1cc(CN3CCOCC3)cc(c1)N2 [Example D189, 6-Chloro-19-(morpholin-4-ylmethyl)-14-oxa-2,4,8,23-tetraazatetracyclo[15.3.1.1(3,7).1(9,13)]tricosa-1(21),3(23),4,6,9(22),10,12,17,19-nonaene bis(trifluoroacetate)]
7 | 0.0009 | 0.0035 | 0.024 | 0.003 | CN1CCN(Cc2cc3cc(c2)Nc2ncc(Cl)c(n2)Nc2cccc(c2)OCC3)CC1 [Example D190, 6-Chloro-19-[(4-methylpiperazin-1-yl)methyl]-14-oxa-2,4,8,23-tetraazatetracyclo[15.3.1.1(3,7).1(9,13)]tricosa-1(21),3(23),4,6,9(22),10,12,17,19-nonaene tris(trifluoroacetate)]
8 | 0.0014 | 0.0089 | 0.034 | 0.0057 | Clc1cnc2nc1Nc1cccc(c1)OCCc1cc(CN3CCNCC3)cc(c1)N2 [Example D191, 6-Chloro-19-(piperazin-1-ylmethyl)-14-oxa-2,4,8,23-tetraazatetracyclo[15.3.1.1(3,7).1(9,13)]tricosa-1(21),3(23),4,6,9(22),10,12,17,19-nonaene tris(trifluoroacetate)]
9 | 0.0098 | 0.013 | 0.0047 | 0.104 | O=C(C[C@@H]1CCCNC1)Nc1ccc2cc1CCc1cccc(c1)Nc1ncc(Cl)c(n1)N2 [Example D192, N-[6-Chloro-2,4,8,22-tetraazatetracyclo[14.3.1.1(3,7).1(9,13)]docosa-1(20),3(22),4,6,9(21),10,12,16,18-nonaen-12-yl]-2-[(3S)-piperidin-3-yl]acetamidebis(trifluoroacetate)]
10 | 0.0083 | 0.0061 | 0.0014 | 0.032 | O=C(C[C@H]1CCCNC1)Nc1ccc2cc1CCc1cccc(c1)Nc1ncc(Cl)c(n1)N2 [Example D193, N-[6-Chloro-2,4,8,22-tetraazatetracyclo[14.3.1.1(3,7).1(9,13)]docosa-1(20),3(22),4,6,9(21),10,12,16,18-nonaen-12-yl]-2-[(3R)-piperidin-3-yl]acetamidebis(trifluoroacetate)]
11 | 0.046 | 0.023 | 0.0058 | 0.144 | O=C(C[C@@H]1CCCNC1)Nc1ccc2cc1CCc1cncc(c1)Nc1ncc(Cl)c(n1)N2 [Example D194, N-[6-Chloro-2,4,8,18,22-pentaazatetracyclo[14.3.1.1(3,7).1(9,13)]docosa-1(20),3(22),4,6,9(21),10,12,16,18-nonaen-12-yl]-2-[(3S)-piperidin-3-yl]acetamidetris(trifluoroacetate)]
12 | 0.054 | 0.031 | 0.018 | 0.355 | O=C(C[C@H]1CCCNC1)Nc1ccc2cc1CCc1cncc(c1)Nc1ncc(Cl)c(n1)N2 [Example D195, N-[6-Chloro-2,4,8,18,22-pentaazatetracyclo[14.3.1.1(3,7).1(9,13)]docosa-1(20),3(22),4,6,9(21),10,12,16,18-nonaen-12-yl]-2-[(3R)-piperidin-3-yl]acetamidetris(trifluoroacetate)]
13 | 0.0064 | 0.031 | 0.011 | 0.057 | O=C(C[C@@H]1CCCN(C(=O)Nc2ccccc2)C1)Nc1ccc2cc1CCc1cccc(c1)Nc1ncc(Cl)c(n1)N2 [Example D196, (3S)-3-(2-{[6-Chloro-2,4,8,22-tetraazatetracyclo[14.3.1.1(3,7).1(9,13)]docosa-1(20),3(22),4,6,9(21),10,12,16,18-nonaen-12-yl]amino}-2-oxoethyl)-N-phenylpiperidine-1-carboxamide trifluoroacetate]
14 | 0.009 | 0.034 | 0.016 | 0.044 | O=C(C[C@H]1CCCN(C(=O)Nc2ccccc2)C1)Nc1ccc2cc1CCc1cccc(c1)Nc1ncc(Cl)c(n1)N2 [Example D197, (3R)-3-(2-{[6-Chloro-2,4,8,22-tetraazatetracyclo[14.3.1.1(3,7).1(9,13)]docosa-1(20),3(22),4,6,9(21),10,12,16,18-nonaen-12-yl]amino}-2-oxoethyl)-N-phenylpiperidine-1-carboxamide trifluoroacetate]
15 | 0.01 | 0.027 | 0.0057 | 0.069 | O=C(C[C@@H]1CCCN(C(=O)Nc2ccccc2)C1)Nc1ccc2cc1CCc1cncc(c1)Nc1ncc(Cl)c(n1)N2 [Example D198, (3S)-3-(2-{[6-Chloro-2,4,8,18,22-pentaazatetracyclo[14.3.1.1(3,7).1(9,13)]docosa-1(20),3(22),4,6,9(21),10,12,16,18-nonaen-12-yl]amino}-2-oxoethyl)-N-phenylpiperidine-1-carboxamide bis(trifluoroacetate)]
16 | 0.008 | 0.021 | 0.0057 | 0.065 | O=C(C[C@H]1CCCN(C(=O)Nc2ccccc2)C1)Nc1ccc2cc1CCc1cncc(c1)Nc1ncc(Cl)c(n1)N2 [Example D199, (3R)-3-(2-{[6-Chloro-2,4,8,18,22-pentaazatetracyclo[14.3.1.1(3,7).1(9,13)]docosa-1(20),3(22),4,6,9(21),10,12,16,18-nonaen-12-yl]amino}-2-oxoethyl)-N-phenylpiperidine-1-carboxamide bis(trifluoroacetate)]
17 | 0.0093 | 0.012 | 0.0081 | 0.034 | CC(=O)N1CCC[C@@H](CC(=O)Nc2ccc3cc2CCc2cccc(c2)Nc2ncc(Cl)c(n2)N3)C1 [Example D200, 2-[(3S)-1-Acetylpiperidin-3-yl]-N-[6-chloro-2,4,8,22-tetraazatetracyclo[14.3.1.1(3,7).1(9,13)]docosa-1(20),3(22),4,6,9(21),10,12,16,18-nonaen-12-yl]acetamide trifluoroacetate]
18 | 0.01 | 0.035 | 0.019 | 0.029 | CC(=O)N1CCC[C@H](CC(=O)Nc2ccc3cc2CCc2cccc(c2)Nc2ncc(Cl)c(n2)N3)C1 [Example D201, 2-[(3R)-1-Acetylpiperidin-3-yl]-N-[6-chloro-2,4,8,22-tetraazatetracyclo[14.3.1.1(3,7).1(9,13)]docosa-1(20),3(22),4,6,9(21),10,12,16,18-nonaen-12-yl]acetamide trifluoroacetate]
19 | 0.012 | 0.03 | 0.022 | 0.065 | O=C(C[C@@H]1CCCN(C(=O)c2ccccc2)C1)Nc1ccc2cc1CCc1cccc(c1)Nc1ncc(Cl)c(n1)N2 [Example D202, 2-[(3S)-1-Benzoylpiperidin-3-yl]-N-[6-chloro-2,4,8,22-tetraazatetracyclo[14.3.1.1(3,7).1(9,13)]docosa-1(20),3(22),4,6,9(21),10,12,16,18-nonaen-12-yl]acetamide trifluoroacetate]
